For test [1], the target named is T1, Cell surface CD73 of U87 MG human glioblastoma cells (Homo sapiens, UniProt P21589).
T1 construct: Cell surface CD73 catalyzes the conversion of adenosine monophosphate (AMP) to adenosine and inorganic phosphate; endogenous in cells; host or cells: U87 MG human glioblastoma cells
T1 sequence (P21589 27-549): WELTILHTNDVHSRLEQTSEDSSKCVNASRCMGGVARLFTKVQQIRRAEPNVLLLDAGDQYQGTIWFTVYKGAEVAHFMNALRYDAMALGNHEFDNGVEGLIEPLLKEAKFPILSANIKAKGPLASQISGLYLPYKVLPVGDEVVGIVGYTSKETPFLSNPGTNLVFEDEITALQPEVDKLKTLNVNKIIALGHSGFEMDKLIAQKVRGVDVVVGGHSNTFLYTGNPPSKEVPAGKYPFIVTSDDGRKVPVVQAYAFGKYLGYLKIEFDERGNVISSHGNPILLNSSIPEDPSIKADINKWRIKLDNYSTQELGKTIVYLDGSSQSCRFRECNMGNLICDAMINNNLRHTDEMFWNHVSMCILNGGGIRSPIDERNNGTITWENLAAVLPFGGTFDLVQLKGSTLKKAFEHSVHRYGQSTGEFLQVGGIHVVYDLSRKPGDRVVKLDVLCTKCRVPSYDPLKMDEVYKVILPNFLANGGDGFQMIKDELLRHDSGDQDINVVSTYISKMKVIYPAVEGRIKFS
In words: CD73 Cellular Assay. As to conditions: 5000 cells per well, 30 μM AMP substrate, read-out: Potency (IC50, CD73 cellular assay). Format: cell-based. As for the experimental part: Cell surface CD73 catalyzes the conversion of adenosine monophosphate (AMP) to adenosine and inorganic phosphate. U87 MG human glioblastoma cells express high level of CD73. Cells are treated with compounds in a 96-well assay plate and supernatants are collected into a 384-well detection plate. The concentration of inorganic phosphate (Pi) in the supernatants is determined using the phosphate detection reagent, PiColorLock™ (Innova Bioscience, Cat #303-0125) following the manufacturer's instructions.
Briefly, on the day of the assay, U87 MG cells were harvested and resuspended in assay buffer which consisted of 20 mM HEPES, pH=7.4, 137 mM NaCl, 5.4 mM KCl, 1.3 mM CaCl2, 4.2 mM NaHCO3 and 0.1% glucose. To test the effect of compounds on cellular CD73 enzymatic activity, 500 nL/well of compounds dissolved in DMSO were added to a 96-well TC-treated microplate (Corning #3599). Next, 80 μL/well of U87 MG cells in assay buffer were added to assay plate. After 30 minutes of incubation in an atmosphere of 5% CO2 at 37° C., 20 μL/well of 150 μM AMP (Adenosine 5′-monophosphate monohydrate, Sigma, Cat #01930) in assay buffer was added to assay plate. Final assay conditions consisted of 5000 cells per well in 0.5% DMSO and 30 μM AMP substrate. After 50 minutes of incubation in an atmosphere of 5% CO2 at 37° C., 50 μL/well of supernatant was transferred to the 384-well detection plate (Corning® NBS™ 384 well plates, Cat #3640). Meanwhile “Gold mix” was prepared shortly before use by adding 1/100 volume of accelerator to the PiColorLock™ Gold reagent. 12 μL/well of the “Gold mix” was added to detection plate containing 50 μL/well of supernatant and incubated at 25° C. for 5 minutes. 5 μL/well stabilizer was added to the detection plate and incubated at 25° C. for 30 minutes. The absorbance at 635 nm was measured on a Spark 10M instrument (TECAN). The percent (%) inhibition at each concentration of a compound was calculated relative to the OD value in the Max and Min control wells contained within each assay plate. The Max control wells contained cells and substrate as 0% inhibition, and the Min control wells only contained cells as 100% inhibition. The concentrations and percent inhibition values for a test compound are plotted and the concentration of a the compound required to achieve 50% inhibition (IC50) was determined with a four-parameter logistic dose response equation.

Test [2] concerns the target T2, Recombinant Human 5′-Nucleotidase (CD73) (Homo sapiens, UniProt P21589).
T2 construct: CHO derived CD73 (Trp27-Lys547), with a C-terminal 6-His tag; 6-His (C); purchased R&D 5795-EN; host or cells: CHO
T2 sequence (P21589 27-547): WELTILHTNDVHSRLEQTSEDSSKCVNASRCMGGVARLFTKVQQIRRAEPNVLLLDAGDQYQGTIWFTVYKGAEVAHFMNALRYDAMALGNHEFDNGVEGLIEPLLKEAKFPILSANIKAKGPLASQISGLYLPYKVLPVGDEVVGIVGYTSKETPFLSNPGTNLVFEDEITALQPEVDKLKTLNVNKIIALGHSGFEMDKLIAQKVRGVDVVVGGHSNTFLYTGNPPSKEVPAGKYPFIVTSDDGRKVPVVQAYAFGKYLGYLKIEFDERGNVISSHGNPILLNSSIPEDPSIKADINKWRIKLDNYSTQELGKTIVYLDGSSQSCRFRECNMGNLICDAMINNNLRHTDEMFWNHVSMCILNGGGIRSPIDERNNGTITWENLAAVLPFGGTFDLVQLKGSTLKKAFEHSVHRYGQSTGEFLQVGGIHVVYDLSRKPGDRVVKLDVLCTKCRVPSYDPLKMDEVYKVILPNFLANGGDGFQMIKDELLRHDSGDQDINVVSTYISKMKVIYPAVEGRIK
In words: CD73 Enzyme Assay. It counts as biochemical. Particulars: human CD73 0.5 nM, AMP 30 μM, PiColorLock phosphate detection; read-out: Potency (IC50, CD73 enzyme assay). Summed up: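 Human CD73 (CHO-derived Trp27-Lys547, His-tagged; 0.5 nM final) was preincubated with compound for 15 min at 25° C. in Tris pH 7.5 buffer with MgCl2. It then reacted with 30 μM AMP for 20 min at 37° C., and released phosphate was read by malachite green absorbance at 635 nm. IC50 came from four-parameter fits against enzyme and no-enzyme controls.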

The structures appear in SMILES notation.

Turning to `CO[C@H]1CC[C@H](Nc2nc(Cl)nn3c([C@@H]4O[C@H](COP(=O)(O)CP(=O)(O)O)[C@@H](O)[C@H]4O)cnc23)CC1` [Compound 17, (((((2R,3S,4R,1S)-5-(2-chloro-4-(((1r,4S)-4-methoxycyclohexyl)amino)imidazo[2,1-f][1,2,4]triazin-7-yl)-3,4-dihydroxytetrahydrofuran-2-yl)methoxy)(hydroxy)phosphoryl)methyl)phosphonic acid], the figures for the IC50 in test [1] and in test [2] were below 1 nM and below 10 nM, respectively.

On to `O=P(O)(O)CP(=O)(O)OC[C@H]1O[C@@H](c2cnc3c(N4CCc5ccccc54)nc(Cl)nn23)[C@H](O)[C@@H]1O` [Compound 18, (((((2R,3S,4R,1S)-5-(2-chloro-4-(indolin-1-yl)imidazo[2,1-f][1,2,4]triazin-7-yl)-3,4-dihydroxytetrahydrofuran-2-yl)methoxy)(hydroxy)phosphoryl)methyl)phosphonic Acid], for which the IC50 (usually the concentration needed to halve the response being measured) in test [1] is 1 to 9.9 nM; in test [2], below 10 nM.

As for `O=P(O)(O)CP(=O)(O)OC[C@H]1O[C@@H](c2cnc3c(N4CCc5ccccc5C4)nc(Cl)nn23)[C@H](O)[C@@H]1O` [Compound 19, (((((2R,3S,4R,1S)-5-(2-chloro-4-(3,4-dihydroisoquinolin-2(1H)-yl)imidazo[2,1-f][1,2,4]triazin-7-yl)-3,4-dihydroxytetrahydrofuran-2-yl)methoxy)(hydroxy)phosphoryl)methyl)phosphonic Acid], the values for the IC50 in test [1] and in test [2] were below 1 nM and below 10 nM, respectively.

With `O=P(O)(O)CP(=O)(O)OC[C@H]1O[C@@H](c2cnc3c(NC4CCCCC4)nc(Cl)nn23)[C@H](O)[C@@H]1O` [Compound 20, (((((2R,3S,4R,1S)-5-(2-chloro-4-(cyclohexylamino)imidazo[2,1-f][1,2,4]triazin-7-yl)-3,4-dihydroxytetrahydrofuran-2-yl)methoxy)(hydroxy)phosphoryl)methyl)phosphonic Acid], the results for the IC50 in test [1] and in test [2] were below 1 nM and below 10 nM, respectively.

In the case of `O=P(O)(O)CP(=O)(O)OC[C@H]1O[C@@H](c2cnc3c(N[C@H]4CCOC4)nc(Cl)nn23)[C@H](O)[C@@H]1O` [Compound 21, [({[(2R,3S,4R,5S)-5-{2-chloro-4-[(3S)-oxolan-3-ylamino]imidazo[2,1-f][1,2,4]triazin-7-yl}-3,4-dihydroxyoxolan-2-yl]methoxy}(hydroxy)phosphoryl)methyl]phosphonic Acid], the values for the IC50 in test [1] and in test [2] were below 1 nM and below 10 nM, respectively.

As for `O=P(O)(O)CP(=O)(O)OC[C@H]1O[C@@H](c2cnc3c(N[C@@H]4CCOC4)nc(Cl)nn23)[C@H](O)[C@@H]1O` [Compound 22, (((((2R,3S,4R,1S)-5-(2-chloro-4-(((R)-tetrahydrofuran-3-yl)amino)imidazo[2,1-f][1,2,4]triazin-7-yl)-3,4-dihydroxytetrahydrofuran-2-yl)methoxy)(hydroxy)phosphoryl)methyl)phosphonic Acid], the IC50 is below 1 nM in test [1] and below 10 nM in test [2].

On to `COC1CCC(Nc2nc(Cl)nn3c([C@@H]4O[C@H](COP(=O)(O)CP(=O)(O)O)[C@@H](O)[C@H]4O)cnc23)C1` (stereo partly drawn) [Compound 23, (((((2R,3S,4R,1S)-5-(2-chloro-4-((3-methoxycyclopentyl)amino)imidazo[2,1-f][1,2,4]triazin-7-yl)-3,4-dihydroxytetrahydrofuran-2-yl)methoxy)(hydroxy)phosphoryl)methyl)phosphonic acid], for which the IC50 was below 1 nM in test [1] and below 10 nM in test [2].

For `O=P(O)(O)CP(=O)(O)OC[C@H]1O[C@@H](c2cnc3c(N4Cc5ccccc5C4)nc(Cl)nn23)[C@H](O)[C@@H]1O` [Compound 24, [({[(2R,3S,4R,5S)-5-[2-chloro-4-(1,3-dihydroisoindol-2-yl)imidazo[2,1-f][1,2,4]triazin-7-yl]-3,4-dihydroxyoxolan-2-yl]methoxy}(hydroxy)phosphoryl)methyl]phosphonic acid], the IC50 in test [1] was below 1 nM; in test [2], below 10 nM.

Regarding `CO[C@H]1CC[C@@H](Nc2nc(Cl)nn3c([C@@H]4O[C@H](COP(=O)(O)CP(=O)(O)O)[C@@H](O)[C@H]4O)cnc23)CC1` [Compound 27, (((((2R,3S,4R,1S)-5-(2-chloro-4-(((1s,4R)-4-methoxycyclohexyl)amino)imidazo[2,1-f][1,2,4]triazin-7-yl)-3,4-dihydroxytetrahydrofuran-2-yl)methoxy)(hydroxy)phosphoryl)methyl)phosphonic Acid], the IC50 in test [1] was below 1 nM; in test [2], below 10 nM.

`O=P(O)(O)CP(=O)(O)OC[C@H]1O[C@@H](c2cnc3c(N[C@@H]4CCc5ccccc54)nc(Cl)nn23)[C@H](O)[C@@H]1O` [Compound 28, (((((2R,3S,4R,1S)-5-(2-chloro-4-(((R)-2,3-dihydro-1H-inden-1-yl)amino)imidazo[2,1-f][1,2,4]triazin-7-yl)-3,4-dihydroxytetrahydrofuran-2-yl)methoxy)(hydroxy)phosphoryl)methyl)phosphonic Acid]: the results for the IC50 in test [1] and in test [2] were below 1 nM and below 10 nM, respectively.

As to `CN(c1nc(Cl)nn2c([C@@H]3O[C@H](COP(=O)(O)CP(=O)(O)O)[C@@H](O)[C@H]3O)cnc12)C1CCc2ccccc21` (stereo partly drawn) [Compound 29, (((((2R,3S,4R,1S)-5-(2-chloro-4-(((R)-2,3-dihydro-1H-inden-1-yl)(methyl)amino)imidazo[2,1-f][1,2,4]triazin-7-yl)-3,4-dihydroxytetrahydrofuran-2-yl)methoxy)(hydroxy)phosphoryl)methyl)phosphonic Acid], the IC50 in test [1] is below 1 nM; in test [2], below 10 nM.

`CN(c1nc(Cl)nn2c([C@@H]3O[C@H](COP(=O)(O)CP(=O)(O)O)[C@@H](O)[C@H]3O)cnc12)[C@H]1CCc2ccccc21` [Compound 30, (((((2R,3S,4R,1S)-5-(2-chloro-4-(((S)-2,3-dihydro-1H-inden-1-yl)(methyl)amino)imidazo[2,1-f][1,2,4]triazin-7-yl)-3,4-dihydroxytetrahydrofuran-2-yl)methoxy)(hydroxy)phosphoryl)methyl)phosphonic Acid]: the 50% inhibitory concentration (IC50) is below 1 nM in test [1] and below 10 nM in test [2].

Values taken from patent US20220204539A1, “CD73 INHIBITORS” (BioArdis LLC, priority 2019, published 2022).
